Assay results reported in US9079964B2, “Immunoassay for cyclopropylindole based synthetic cannabinoids, metabolites and derivatives thereof” (Randox Laboratories Limited, priority 2013, dated 2015).

What was measured:
[1] = system: antiserum raised to Immunogen I; experiment: UR144/XLR11 Synthetic Cannabinoids (Spice) ELISA, antiserum raised to Immunogen I (third bleed); format: binding, sheep; conditions: for Concentration of compounds that elicit a negative response: Table 4, negative response at this concentration; for % Cross-Reactivity: Table 4, relative to UR144 N-Pentanoic Acid = 100
Protocol: (§1) The wells of an enhanced binding 96 well polystyrene microtiter plate were coated with IgG fraction of antiserum raised to Immunogen I or II, diluted in 10 mM Tris, pH 8.5 (125 μl/well). The appropriate antibody coating dilution was determined using standard ELISA checkerboard techniques. The plate was incubated overnight at 4° C., washed 4 times over 10 minutes with Tris buffered saline containing Tween20 (TBST) and tapped dry. Standard solutions (UR-144 N-pentanoic acid) were applied at 0, 0.625, 1.25, 2.5, 5, 10, 20 and 40 ng/ml and 50 μl of each was added to the appropriate wells. 75 μl of conjugate (appropriate hapten-HRP) diluted in Tris buffer (pH 7.2) containing EDTA, D-mannitol, sucrose, thimerosol and BSA, was added to each of the wells. The appropriate dilution of conjugate was also determined using standard ELISA checkerboard techniques. The plate was incubated at 25° C. for 1 hour. Excess unbound conjugate was removed by washing 6 times over a ten minute period with TBST. 125 μl of tetramethylbenzidine (TMB) substrate solution was added to each well of the plate that was then incubated for 20 minutes in the dark at room temperature. The reaction was terminated by addition of 125 μl of 0.2 M H2SO4 to each well. The absorbance was then measured at 450 nm using a microtiter plate reader. The data are inputted to a computer program called ‘KC Junior’ (Biotek). It gives a 4 parameter fit curve and allows the calculation of concentrations between the standard runs. This program is used to calculate the IC50 values by dividing the 0 ng/ml optical density (OD) value by 2 and obtaining the concentration value from the curve for this OD.
(§2) Cross-reactivity was calculated according to the following formula: % CR=IC50, UR-144 N-pentanoic acid/IC50, cross reactant×100 Where % CR is the percentage cross-reactivity, IC50, UR-144 N-pentanoic acid is the concentration of UR-144 N-pentanoic acid that causes 50% displacement of signal and IC50, cross reactant is the concentration of the cannabinoid/metabolite/selected molecule that causes 50% displacement of signal.
A further assay was carried out in accordance with the protocol described in Example 9 using Immunogen I.

[2] = system: antiserum raised to Immunogen I; experiment: Competitive ELISA with IgG fraction of antiserum raised to Immunogen I (second bleed) and hapten 1-HRP detecting agent; format: binding, sheep
Protocol: as §1, §2
In order to determine the specificity of the competitive ELISAs, standard solutions of a range of structurally related synthetic cannabinoids and their metabolites were prepared in TBST (Tris-Buffered Saline and Tween 20). Using the calibration curves generated and employing a single level of cross reactants, these were used to determine the cross-reactivity of the immunoassays with these substances.

[3] = Table 2, cross-reactant at 100 ng/ml (single level)
[4] = Table 2, cross-reactant tested at 100 ng/ml
[5] = Table 2, cross-reactant tested at 100 ng/ml, relative to UR-144 N-pentanoic acid
[6] = Table 1, B = absorbance at 450 nm at x ng/ml standard, B0 at 0 ng/ml, second bleed
[7] = Table 1, CR based on 100% for UR-144 N-pentanoic acid
[8] = Table 1, standard concentration which produces 50% B/B0, second bleed

Row | Compound | Concentration of compounds that elicit a negative response [1] | % B/BO [2, 3] | IC50 [2, 4] | % Cross-reactivity (CR) [2, 5] | other results
1 | COc1ccccc1CC(=O)c1cn(CCCCCC(=O)O)c2ccccc12 [JWH-250 N-(5-carboxypentyl) metabolite] | 100 ng/mL |  |  |  | 
2 | CC(O)CCCn1cc(C(=O)c2cccc3ccccc23)c2ccccc21 (stereo not shown) [JWH-018 N-(4-hydroxypentyl) metabolite, 1-(4-hydroxypentyl)-1H-indol-3-yl(napthalen-1-yl)-methanone] | 100 ng/mL |  |  |  | 
3 | CCCCCn1cc(C(=O)Cc2ccccc2OC)c2ccccc21 [JWH-250] | 100 ng/mL | 85.90% | >0.1 µg/mL | <3.0% | 
4 | CCCCCn1cc(C(=O)c2cccc3ccccc23)c2cccc(O)c21 [7-OH JWH-018] | 100 ng/mL |  |  |  | 
5 | O=C(c1cccc2ccccc12)c1cn(CCCCCO)c2ccccc12 [JWH-018 N (5 hydroxypentyl) metabolite, 1-(5-hydroxypentyl)-1H-indol-3-yl(naphthalen-1-yl)methanone] | 100 ng/mL | 87.56% | >0.1 µg/mL | <3.0% | 
6 | CCCCCCn1cc(C(=O)c2cccc3ccccc23)c2ccccc21 [JWH-019] |  | 87.30% | >0.1 µg/mL | <3.0% | 
7 | CCCCCn1cc(C(=O)c2ccc(C)c3ccccc23)c2ccccc21 [JWH-122] | 100 ng/mL | 97.01% | >0.1 µg/mL | <3.0% | 
8 | COc1ccccc1CC(=O)c1cn(CCC2CCCCC2)c2ccccc12 [RCS 8] | 100 ng/mL | 88.15% | >0.1 µg/mL | <3.0% | 
9 | CCCCCCn1cc(C(=O)c2cccc3ccccc23)c2cc(O)ccc21 [JWH-019 5-hydroxyindole metabolite] | 100 ng/mL |  |  |  | 
10 | CN1CCCCC1Cn1cc(C(=O)c2cccc3ccccc23)c2ccccc21 (stereo not shown) [AM1220] |  | 73.59% | >0.1 µg/mL | <3.0% | 
11 | CCCCCn1cc(C(=O)c2ccc(Cl)c3ccccc23)c2ccccc21 [JWH-398] | 100 ng/mL | 88.86% | >0.1 µg/mL | <3.0% | 
12 | CCCCn1c(O)c(C(=O)c2cccc3ccccc23)c2ccccc21 [2-OH JWH-073] | 100 ng/mL |  |  |  | 
13 | CCCCn1cc(C(=O)c2cccc3ccccc23)c2ccc(O)cc21 [6-OH JWH-073] | 100 ng/mL |  |  |  | 
14 | CCCCCn1cc(C(=O)c2cccc3ccccc23)c2c(O)cccc21 [4-OH JWH-018] | 100 ng/mL |  |  |  | 
15 | COc1ccccc1CC(=O)c1cn(CCCCCO)c2ccccc12 [JWH-250 N-(5-hydroxypentyl) metabolite] | 100 ng/mL |  |  |  | 
16 | CC(O)CCCn1cc(C(=O)C2C(C)(C)C2(C)C)c2ccccc21 (stereo not shown) [XLR11 N-(4-hydroxypentyl) metabolite] |  |  |  |  | % Cross-Reactivity [1]: 2%
17 | CCCCCn1cc(C(=O)c2ccc(OC)c3ccccc23)c2ccccc21 [JWH-081] | 100 ng/mL | 97.10% | >0.1 µg/mL | <3.0% | 
18 | CCCCn1cc(C(=O)c2cccc3ccccc23)c2cc(O)ccc21 [5-OH JWH-073] | 100 ng/mL |  |  |  | 
19 | O=C(O)CCCn1cc(-c2cccc3ccccc23)c2ccccc21 [JWH-073 N-butanoic acid metabolite, 4-(3-(1-naphthyl)-1H-indol-1-yl)butanoic acid] | 100 ng/mL |  |  |  | 
20 | CCCCCn1c(C)c(C(=O)c2ccc(OC)c3ccccc23)c2ccccc21 [JWH-098] | 100 ng/mL | 93.94% | >0.1 µg/mL | <3.0% | 
21 | CC1(C)C(C(=O)c2cn(CCCCCF)c3ccccc23)C1(C)C [XLR-11, (1-(5-fluoropentyl)-1H-Indol-3-yl)(2,2,3,3-tetramethylcyclopropyl) methanone] |  |  |  |  | % Cross-Reactivity [1]: 29%; % B/BO [2, 6]: 24.0%; % Cross-reactivity (CR) [2, 7]: 36.9%; IC50 [2, 8]: 0.009454 µg/mL

Row | Compound | Concentration of compounds that elicit a negative response [1] | % B/BO [2, 3] | IC50 [2, 4] | % Cross-reactivity (CR) [2, 5] | other results
22 | O=C(O)CCCCn1cc(C(=O)c2cccc3ccccc23)c2ccccc21 [JWH-018 N (carboxybutyl) metabolite] |  | 89.14% | >0.1 µg/mL | <3.0% | 
23 | CC1(C)C(C(=O)c2c[nH]c3ccccc23)C1(C)C [UR-144 desalkyl] |  |  |  |  | % Cross-Reactivity [1]: 13%; % B/BO [2, 6]: 38.5%; % Cross-reactivity (CR) [2, 7]: 18.1%; IC50 [2, 8]: 0.019207 µg/mL
24 | CCCCCn1cc(C(=O)c2cccc3ccccc23)c2ccccc21 [JWH-018] |  | 87.89% | >0.1 µg/mL | <3.0% | 
25 | CCCCn1cc(C(=O)c2cccc3ccccc23)c2c(O)cccc21 [4-OH JWH-073] | 100 ng/mL |  |  |  | 
26 | CC(O)CCCn1cc(C(=O)C2C(C)(C)C2(C)C)c2ccccc21 (stereo not shown) [UR144 N-(4-hydroxypentyl) metabolite] |  |  |  |  | % Cross-Reactivity [1]: 107%
27 | CC(O)CCn1cc(C(=O)c2cccc3ccccc23)c2ccccc21 (stereo not shown) [JWH-073 N-(3-hydroxybutyl) metabolite, 1-(3-hydroxybutyl)-1H-indol-3-yl(napthalen-1-yl)methanone] | 100 ng/mL |  |  |  | 
28 | O=C(O)CCCCn1cc(-c2cccc3ccccc23)c2ccccc21 [JWH-018 N-pentanoic acid metabolite, 5-(3-(1-naphthyl)-1H-indol-1-yl)pentanoic acid] | 100 ng/mL |  |  |  | 
29 | O=C(c1ccccc1I)c1cn(CCCCCF)c2ccccc12 [AM694] | 100 ng/mL | 79.00% | >0.1 µg/mL | <3.0% | 
30 | O=C(c1cccc2ccccc12)c1c[nH]c2ccccc12 [N-desalkyl JWH-018, 3-(1-naphthoyl) indole] | 100 ng/mL |  |  |  | 
31 | O=C(c1cccc2ccccc12)c1cn(CCCCO)c2ccccc12 [JWH-073 N-(4-hydroxybutyl) metabolite, 1-(4-hydroxybutyl)-1H-indol-3-yl(naphthalen-1-yl)methanone] | 100 ng/mL |  |  |  | 
32 | O=C(O)CCCCn1cc(C(=O)C23CC4CC(CC(C4)C2)C3)c2ccccc21 [AB001N-pentanoic acid] | 100 ng/mL |  |  |  | 
33 | CCCCCn1c(O)c(C(=O)c2cccc3ccccc23)c2ccccc21 [2-OH JWH-018] | 100 ng/mL |  |  |  | 
34 | C=C(C)C(C)(C)CC(=O)c1cn(CCCCCF)c2ccccc12 [XLR11 Degradant] |  |  |  |  | % Cross-Reactivity [1]: 3%
35 | O=C(NC12CC3CC(CC(C3)C1)C2)c1cn(CCCCCF)c2ccccc12 [STS135] | 100 ng/mL |  |  |  | 
36 | CCCCCn1cc(C(=O)NC23CC4CC(CC(C4)C2)C3)c2ccccc21 [JWH-018 adamantyl carboxamide] | 10 ng/mL |  |  |  | 
37 | COc1ccc(C(=O)c2cn(CCCCCO)c3ccccc23)c2ccccc12 [JWH-081 N-(5-hydroxypentyl) metabolite] | 100 ng/mL |  |  |  | 
38 | CCCCn1cc(C(=O)c2cccc3ccccc23)c2cccc(O)c21 [7-OH JWH-073] | 100 ng/mL |  |  |  | 
39 | CCCCCn1cc(C(=O)c2ccc(CC)c3ccccc23)c2ccccc21 [JWH-210] |  | 95.89% | >0.1 µg/mL | <3.0% | 
40 | O=C(NC12CC3CC(CC(C3)C1)C2)c1nn(CCCCCF)c2ccccc12 [AKB48 N (5-fluoropentyl) analog] | 100 ng/mL |  |  |  | 
41 | O=C(c1cn(CCCCCO)c2ccccc12)C12CC3CC(CC(C3)C1)C2 [AB001 N-pentanol] | 100 ng/mL |  |  |  | 
42 | CCCCCn1cc(C(=O)C23CC4CC(CC(C4)C2)C3)c2ccccc21 [JWH-018 adamantyl] | 100 ng/mL |  |  |  | 
